Source: US20080286350A1, “Formulation of Multivalent Antibody Constructs and Use of Same for Cancer Therapy” (BC CANCER AGENCY, priority 2004, published 2008)

Key:
Format in all cases: cell-based
Ramos cells = test: MTT cell viability assay, Ramos cells, 48 hours (Example 1)
[1] = tested on: phosphorylated p65NF-κB, Bcl-xL, Bcl-2, Bax, p-Akt; test: Western blot analyses of cell survival molecules, Z-138; conditions: 15 μg/mL, 3 days
Protocol: (§1) FIGS. 6(a)-6(b) are bar graphs and Western blot analyses showing modulation of cancer cell survival pathways by multivalent liposomal Ab constructs. […] The concentration of trastuzumab was 200 μg/mL. (b) Representative cell cycle analysis, DAPI staining and Western blot analyses of Z-138 cells after exposure to free or liposomal rituximab for 3 days. The concentration of rituximab was 15 μg/mL. […] For DAPI staining, yellow arrows indicate apoptotic morphology of DNA condensation or fragmentation associated with Z-138 cells exposed to various treatments. The scale bar is equivalent to 50 μm, and all images are shown at the same magnification.
The following antibodies were used in this study: anti-p-HER2-Tyr-1248/Tyr-1173; anti-HER2; anti-p-Akt-Ser-473 and anti-Akt (all were rabbit polyclonal, New England Biolabs) and anti-human β-actin (mouse monoclonal, Sigma). The secondary antibody was horseradish peroxidase-conjugated anti-mouse or anti-rabbit IgG (Promega, Madison, Wis.). Proteins were detected by enhanced chemiluminescence (Amersham Pharmacia Biotech, Buckinghamshire, England), and visualized after exposure to Kodak autoradiography film. Equivalent amounts of protein (30 μg/lane determined by Bradford assay) were resolved by 12% SDS-polyacrylamide pre-made gels (Bio-Rad).

[2] = tested on: Ramos (Burkitt's lymphoma) cell line; test: Cell viability assay, fraction of cells affected (fa), Ramos
Protocol: (§2) FIGS. 5(a)-(d) are a series of bar graphs summarizing results for in vitro treatment of cancer cell lines with free bivalent or liposomal multivalent Ab constructs. […] Fraction of cells affected (fa) was calculated as follows: fa=1−fu, where fu was the fraction of remaining viable cells calculated as the ratio of the absorbance readings from the MTT assay for treated and untreated groups. Data represent mean ±S.E.M. from 3 independent experiments. * and ^# denote P<0.05 as compared to the free Ab treatment (ANOVA and Scheffe test for post-hoc comparisons).
(§3) Cells (3,500 cells/well for LCC6^HER2 and MCF7^HER2, and 20-50,000 cells/well for Ramos and 20,000 cells/well for Z-138) were seeded in 96-well plates. In the case of LCC6^HER2 and MCF7^HER2 cells, treatment was added after an overnight incubation to allow cell adherence to plates. In the case of Ramos and Z-138 cells, treatment was added on the same day after seeding. Cell viability was determined using 3-(4,5-dimethylthiazol-2-yl)-2,5-diphenyltetrazolium bromide (MTT) as previously described ^28 or Alamar Blue added in 10 μL/well with an 18-h incubation before reading fluorescence in a Fluorstar (v 1.2) plate reader (BMG Labtechnologies, Offenburg, Germany).
(§4) For rituximab, testing was conducted in a Burkitt's lymphoma cell line, Ramos (FIG. 5c), and a mantle cell lymphoma cell line, Z-138 (FIG. 5d).

Z-138 cells = test: Cell cycle analysis and DAPI staining, Z-138; conditions: 15 μg/mL, 3 days
Protocol: as §1
Cells were harvested after treatment and fixed in cold 70% ethanol adjusted to 1×10^6 cells/mL and 2×10^6 cells/mL for cell cycle analyses and DAPI staining, respectively. In the case of cell cycle analyses, cells were stained in propidium iodide (PI) buffer [50 μg/mL PI, 1 mg/mL RNase A (Sigma), and 0.1% Triton X-100 in PBS] at 37° C. for 15 min as previously described ^28. Cells were then chilled on ice for 1 h and analyzed on a FACSCalibur flow cytometer (Becton Dickinson, San Jose, Calif.) with 20,000 events collected for each sample. In the case of DAPI staining, cells were incubated in DAPI staining solution (0.1 μg/mL DAPI, 1 mg/mL RNase A and 0.1% Triton X-100 in PBS) for 15 min, followed by chilling on ice for 30 min. Cells were cytospun onto a glass slide, and viewed with a Leica DMLB fluorescence microscope. Images were captured with a Retiga 1300i digital camera and analyzed by the computer software OpenLab 3.5.1 (Improvision).

caspase 3/7 = test: Caspase 3/7 activity, Z-138; conditions: Z-138 cells, data not shown
[3] = tested on: Z-138 (mantle cell lymphoma) cell line; test: Cell viability assay, fraction of cells affected (fa), Z-138
Protocol: as §2, §3, §4

[4] = 3 days, 10% serum, range of Ab concentrations tested

Substance | potency / cytotoxic activity on cell viability (MTT assay), in words (Ramos cells) | expression levels of phosphorylated p65NF-κB and downstream Bcl-xL [1] | apoptosis: percentage of cells in sub-G1/G0 phase, morphology (DAPI) (Z-138 cells) | further results
Lipo-RTX 48: Rituximab bound to liposomes at antibody-to-lipid ratio of 48 μg antibody/μmol lipid | superior potency to free Rituximab | – | – | –
Lipo-RTX 59: Rituximab bound to liposomes at antibody-to-lipid ratio of 59 μg antibody/μmol lipid | superior potency to free Rituximab | – | – | –
cross-linked rituximab: Free rituximab cross-linked by an anti-human IgG F(ab)′ (goat F(ab′)2 anti-human IgG, 50 μg/mL), included as a control | – | reduced | increases | expression level of p-Akt [1]: capable of reducing; activity (fa) compared to liposomal rituximab, in words ([2]; Ab concentrations above 10 μg/mL, P<0.05): more effective than liposomal rituximab
free rituximab: a therapeutic antibody targeting CD20; anti CD20 monoclonal antibody | minimal or no cytotoxic activity | not different from untreated cells | not different from untreated cells | –
liposomal rituximab: rituximab conjugated to DSPC/CHOL/DSPE-PEG2000/DSPE-PEG2000-MAL liposomes, Ab-to-lipid ratio 50-70 μg/μmol | – | reduced | increases | increase in caspase 3/7 activity (caspase 3/7): not; activity (fa) compared to free rituximab, in words [2, 4]: significantly more effective than the free, bivalent form; activity (fa) compared to free rituximab, in words [3, 4]: significantly more effective than the free, bivalent form; activity (fa) compared to cross-linked rituximab, in words ([3]; P>0.05): not significantly different from that of cross-linked rituximab
